Test systems include UACC-257 melanoma; SF-295 CNS; TK-10 renal; HCT-15 colon; SK-MEL-5 melanoma; EKVX NSCLC; UACC-62 melanoma; MDA-MB-231 breast; MCF7 breast; SK-MEL-2 melanoma; MALME-3M melanoma; IGROV1 ovarian; OVCAR-4 ovarian; ACHN renal; PC-3 prostate; HCT-116 colon; NCI-H23 lung; RPMI-8226 leukemia.
What all share (assay): inhibition of tumour cell growth, NCI panel, 48 h

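These data come from cells grown in 96-well plates and exposed to compound for 48 hours at five concentrations. TGI: concentration producing complete growth inhibition.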 Where a SMILES comes first, the peptide text is derived from it. The star is where a group is joined. Boc = CC(C)(C)OC(=O)*

As for `Cc1ccc2c(c1)C(=O)/C(=C\c1ccccc1)CCS2(=O)=O`, the TGI is 31.6 µM in the test with UACC-257 melanoma; 29.6 µM with SF-295 CNS; 30.7 µM in the test on TK-10 renal; 19.7 µM in the test on HCT-15 colon; 29.4 µM in the test on SK-MEL-5 melanoma; greater than 100 µM in the test on EKVX NSCLC. Further, the TGI in the test on UACC-62 melanoma stood at 31.9 µM; in the test with MDA-MB-231 breast it was 35.5 µM; in the test on MCF7 breast, 18.9 µM; in the test with SK-MEL-2 melanoma, 89.8 µM; in the test with MALME-3M melanoma, 36.5 µM; in the test with IGROV1 ovarian, 28.7 µM. The TGI with OVCAR-4 ovarian is 46.5 µM; in the test on ACHN renal it was 24.2 µM; in the test with PC-3 prostate, greater than 71.1 µM; in the test on HCT-116 colon, 18.7 µM; with NCI-H23 lung it was 40.7 µM.

As for `OCC(CN1CCCCC1)(CN1CCCCC1)CN1CCCCC1`, the TGI in the test with UACC-257 melanoma, in the test with TK-10 renal, with HCT-15 colon, in the test on SK-MEL-5 melanoma, in the test on EKVX NSCLC and in the test on UACC-62 melanoma was greater than 100 µM each time. Further, the TGI with MDA-MB-231 breast, in the test with MCF7 breast, in the test with MALME-3M melanoma, in the test on IGROV1 ovarian, with OVCAR-4 ovarian and with ACHN renal was greater than 100 µM in each case. Moreover, the TGI in the test on PC-3 prostate, in the test with HCT-116 colon and in the test with NCI-H23 lung was greater than 100 µM throughout.

In the case of `CSC1=C(C(=O)Nc2ccc(Cl)cc2)C(N)=NC1=O`, the TGI in the test on UACC-257 melanoma, with TK-10 renal, with HCT-15 colon, in the test with SK-MEL-5 melanoma, in the test on EKVX NSCLC and in the test on UACC-62 melanoma was greater than 100 µM each time. For the same compound, the TGI in the test on MDA-MB-231 breast, with RPMI-8226 leukemia, with MCF7 breast, in the test with SK-MEL-2 melanoma, with MALME-3M melanoma and in the test with IGROV1 ovarian was greater than 100 µM in each case. In addition, the TGI in the test with OVCAR-4 ovarian, in the test with PC-3 prostate, with HCT-116 colon and in the test with NCI-H23 lung was greater than 100 µM throughout.

For the compound `C=CCCCC1CCCNC1=O` (configuration not stated), the TGI with UACC-257 melanoma, in the test on SF-295 CNS, in the test with TK-10 renal, in the test with HCT-15 colon, in the test with SK-MEL-5 melanoma and with EKVX NSCLC was greater than 100 µM throughout. Also, the TGI in the test on UACC-62 melanoma, in the test with MDA-MB-231 breast, in the test with RPMI-8226 leukemia, with MCF7 breast, with SK-MEL-2 melanoma and in the test on IGROV1 ovarian was greater than 100 µM throughout. The TGI in the test with OVCAR-4 ovarian, with ACHN renal, with PC-3 prostate, in the test on HCT-116 colon and in the test with NCI-H23 lung was greater than 100 µM each time.

In the case of `Cc1nc(C)c(C(=O)NNC(=O)Cc2ccccc2)cc1C(=O)NNC(=O)Cc1ccccc1`, the TGI with UACC-257 melanoma, in the test with SF-295 CNS, in the test with TK-10 renal, in the test with HCT-15 colon, in the test with SK-MEL-5 melanoma and with EKVX NSCLC was greater than 100 µM in each case. Also, the TGI in the test on UACC-62 melanoma, in the test with MDA-MB-231 breast, in the test on RPMI-8226 leukemia, in the test with MCF7 breast, with SK-MEL-2 melanoma and in the test on IGROV1 ovarian was greater than 100 µM each time. The TGI with OVCAR-4 ovarian, with ACHN renal, in the test on PC-3 prostate, with HCT-116 colon and in the test with NCI-H23 lung was greater than 100 µM in each case.

`CC(C)CNC(=O)CCc1cccc2c1oc1c(CCN)cccc12`: the TGI in the test with UACC-257 melanoma came to 24.8 µM; with SF-295 CNS it was 31.6 µM; in the test on HCT-15 colon, 43 µM; in the test on SK-MEL-5 melanoma, 27.2 µM; in the test with EKVX NSCLC, 27.6 µM; in the test on UACC-62 melanoma, 32 µM. Also, the TGI was 31.6 µM in the test with MDA-MB-231 breast; 46.1 µM in the test with MCF7 breast; 36.7 µM in the test with SK-MEL-2 melanoma; 32 µM in the test with MALME-3M melanoma; 23.7 µM in the test on IGROV1 ovarian; 34 µM in the test on OVCAR-4 ovarian. Also, the TGI in the test with ACHN renal came out at 25.8 µM; in the test on PC-3 prostate it was 34.3 µM; in the test on HCT-116 colon, 21.5 µM; in the test with NCI-H23 lung, 26.7 µM.

In the case of `CCOC(=O)Cc1nnc2c(-c3ccccc3)nc3ccccc3n12`, the TGI in the test with UACC-257 melanoma is greater than 100 µM; with TK-10 renal, greater than 100 µM; with HCT-15 colon it was greater than 100 µM; with SK-MEL-5 melanoma, greater than 100 µM; with EKVX NSCLC, 79.8 µM; in the test with UACC-62 melanoma it was greater than 100 µM. Also, the TGI with MDA-MB-231 breast is 45.3 µM; in the test on RPMI-8226 leukemia, greater than 100 µM; in the test with MCF7 breast, greater than 100 µM; in the test with SK-MEL-2 melanoma it was 95.2 µM; in the test on MALME-3M melanoma, greater than 100 µM; in the test on IGROV1 ovarian, greater than 100 µM. In addition, the TGI in the test on OVCAR-4 ovarian is greater than 100 µM; with ACHN renal, 48.3 µM; in the test on PC-3 prostate, greater than 100 µM; in the test on HCT-116 colon, greater than 100 µM; with NCI-H23 lung, greater than 100 µM.

Consider `CC(NC(=O)C(NC(=O)OC(C)(C)C)C(C)C)C(=O)N1CCCC1C(=O)NCC(=O)NC(C(=O)NCC(=O)O)C(C)C` (configuration not stated) (Boc-VAPGVG-OH; configuration not given here), for which the TGI with UACC-257 melanoma, in the test on SF-295 CNS, in the test with TK-10 renal, in the test with HCT-15 colon, in the test on EKVX NSCLC and in the test with UACC-62 melanoma was greater than 100 µM each time. In addition, the TGI with MDA-MB-231 breast, in the test on RPMI-8226 leukemia, in the test with MCF7 breast, with SK-MEL-2 melanoma, with MALME-3M melanoma and with IGROV1 ovarian was greater than 100 µM throughout. In addition, the TGI with OVCAR-4 ovarian, in the test on ACHN renal, in the test on PC-3 prostate, in the test on HCT-116 colon and with NCI-H23 lung was greater than 100 µM in each case.

(Values after PubChem BioAssay (NCI).)
